From patent US4347319A, “Microbiological epoxidation process” (priority 1980, dated 1982) come the findings set out here.

Common to all, as to test: Oxidation by washed cell suspensions of methane-grown cells
Common to all, as to type: cell-based

Experiment [1] concerns Methylobacter chroococcum (CRL M6) NRRL B-11,214. The procedure, abridged: (§1)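 First, strains were cultured aerobically on methane at 30 °C until turbid, then pelleted and washed in phosphate buffer (0.15 M, pH 7.0). Next, 2 mg cell portions were sealed under substrate plus oxygen (1:1) and shaken at 30 °C. Finally, withdrawn samples were analysed by gas chromatography.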
For experiment [2], the system named is Methylobacterium organophilum (CRL 26 R6) NRRL B-11,222. The procedure, abridged:
as §1

The subject of experiment [3] is Methylococcus capsulatus (CRL M1) NRRL B-11,219. In a few lines:
as §1

The subject of experiment [4] is Methylosinus trichosporium (CRL 15 PM1) NRRL B-11,202. In a few lines:
as §1

Experiment [5] concerns Methylobacter bovis (CRL M1Y) NRRL B-11,216. In a few lines: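 Products were quantified by gas chromatography (flame ionization) in headspace/liquid samples taken periodically from sealed vials. Each vial held 2 mg washed methane-grown cells in 0.15 M phosphate pH 7.0 under a 1:1 substrate/oxygen gas phase, shaken at 30 °C.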
[6] abbreviates: methane-grown washed cells, 30° C., methane to methanol, alkene to 1,2-epoxide.
The mark [7] stands for this setting: methane-grown cells, propane to acetone, butane to 2-butanone.
The mark [8] stands for this setting: growth substrate Methane, n-alkane to secondary alcohol.
[9] abbreviates: methane-grown cell-suspension, pH 7.0, 3° C.
The mark [10] stands for this setting: methane-grown cell-suspension, pH 7.0, 30° C.
The mark [11] stands for this setting: cells grown on methane at 40° C., 30° C. reaction temperature.

Structures are written as SMILES. Like-named read-outs stand apart in the source and are kept apart here.

Consider `CCC(C)O` (centres unmarked) [2-Butanol], for which the “Conversion Rate to Ketone, 2 hrs.” value in experiment [1] was determined as 1 μmole/2 mg protein; in experiment [2], 10 μmole/2 mg protein; in experiment [3], 18 μmole/2 mg protein; in experiment [4], 20 μmole/2 mg protein; in experiment [5] it was 20 μmole/2 mg protein. Moreover, the “Conversion Rate to Ketone, 20 hrs.” value worked out at 3 μmole/2 mg protein in experiment [1] and 50 μmole/2 mg protein in experiment [3].
For the molecule `C=CC=C` [Butadiene], the “Oxidative Conversion Rates” value in experiment [1] (setting [6]) was 1.5 μmole/hr/mg protein; in experiment [2] (setting [6]), 2.8 μmole/hr/mg protein; in experiment [3] (setting [6]), 4.4 μmole/hr/mg protein; in experiment [4] (setting [6]), 4.2 μmole/hr/mg protein; in experiment [5] (setting [6]) it was 1.27 μmole/hr/mg protein.
In the case of `CCCC` [Butane], in experiment [1], the “Conversion Rate to Ketone” value is reported as 1 μmoles/hr/mg Protein. For the same molecule, in experiment [2], the “Conversion Rate” value stood at 0.80 μmoles/hr/^5 mg. protein and the “Conversion Rate to Ketone” value worked out at 2.0 μmoles/hr/mg Protein. For the same molecule, the “Conversion Rate to Ketone” value in experiment [3] is on record as 2 μmoles/hr/mg Protein. Further, in experiment [3] (pH 7), the “Conversion Rate to 1-Butanol” value is on record as 0.4 μmoles/hr./mg./protein, the “Conversion Rate to 2-Butanol” value came out at 0.5 μmoles/hr./mg./protein, the “Conversion Rate to 2-Butanone” value worked out at 0.2 μmoles/hr./mg./protein and the “Conversion Rate to n-butanol” value is 0.2 μmoles/hr./mg./protein. Moreover, in experiment [4], the “Conversion Rate” value was found to be 1.2 μmoles/hr/^5 mg. protein and the “Conversion Rate to Ketone” value is 1.0 μmoles/hr/mg Protein. Moreover, the “Conversion Rate to Ketone” value in experiment [5] was found to be 3 μmoles/hr/mg Protein.
Turning to `C` [Methane], the “Oxidative Conversion Rates” value was found to be 0.8 in experiment [1]; 0.7 in experiment [2]; 2.5 in experiment [3]; 1.2 in experiment [4]; 1.5 in experiment [5]. Further, the “Conversion Rate to Methanol” value in experiment [3] (pH 7) is recorded as 2.5 μmoles/hr./mg./protein.
For the molecule `CCC` [Propane], the “Conversion Rate to Ketone” value was determined as 2.0 μmoles/hr/mg Protein in experiment [1] (setting [7]); 3.0 μmoles/hr/mg Protein in experiment [2] (setting [7]); 4.0 μmoles/hr/mg Protein in experiment [3] (setting [7]); 1.6 μmoles/hr/mg Protein in experiment [4] (setting [7]); 5.0 μmoles/hr/mg Protein in experiment [5] (setting [7]). Moreover, the figures for the “Conversion Rate” value in experiment [2] (setting [8]) and in experiment [4] (setting [8]) were 1.4 μmoles/hr/^5 mg. protein and 2.1 μmoles/hr/^5 mg. protein, respectively. Besides, the “Conversion Rate to 2-Propanol” value in experiment [3] (setting [9]) was determined as 0.7 μmoles/hr./mg./protein. Also, the “Conversion Rate to Acetone” value in experiment [3] (setting [9]) is reported as 0.3 μmoles/hr./mg./protein. Also, the “Conversion Rate to 1-Propanol” value in experiment [3] (setting [10]) is recorded as 0.5 μmoles/hr./mg./protein. Moreover, the “Conversion Rate to Propanol” value in experiment [3] (setting [10]) is given as 0.2 μmoles/hr./mg./protein.
As for `C=CC` [Propylene], the “Oxidative Conversion Rates” value was 1.2 μmole/hr/mg protein in experiment [1] (setting [6]); 2.5 μmole/hr/mg protein in experiment [2] (setting [6]); 5.5 μmole/hr/mg protein in experiment [3] (setting [6]); 4.5 μmole/hr/mg protein in experiment [4] (setting [6]); 1.5 μmole/hr/mg protein in experiment [5] (setting [6]). Moreover, the “conversion rate propylene to propylene oxide” value in experiment [3] (setting [11]) turned out to be 7.88 μ mole/2 hr./mg. protein; in experiment [5] (setting [11]), 0.27 μ mole/2 hr./mg protein.
